Reference: US20230358677A1, “Reversible Excited-State Photoacids and Photobases as Dynamic Fluorescence Sensors of Protonic Species” (California Institute of Technology, priority 2022, published 2023)
Entries after “also recorded” stand apart in the source; their conditions may differ. Where two headings read alike, the source gives them in different places.

How the values were obtained:
[1] = Ground-state and excited-state acidities of aromatic-amine-based photoacids (Table 1); details: pKa* pseudo minus pKa
From the text: Because the Henderson-Hasselbalch equation is derived for proton-transfer reactions at thermal and chemical equilibrium, it is agnostic to whether the ESPT acceptor species are H2O(l) or OH^−(aq), but it does require that the system has reached excited-state quasi-equilibrium.
Observed rate constants can be determined for excited-state proton transfer from weak photoacids to a series of proton-accepting quenchers.

[2] = cited from earlier work; for pKa* pseudo: excited state, photoluminescence titration, Henderson-Hasselbalch analysis; for pKa: ground state
[3] = Acid-base titration of aqueous photoacid with absorption and steady-state photoluminescence detection (Henderson-Hasselbalch / Stern-Volmer fits, OH− as quencher); details: for predicted pK*a pseudo (Equation 5): from bimolecular rate constant and excited-state lifetime; for bimolecular rate constant k+q,ss,OH−: steady-state data, forward direction of Reaction 1 with B=OH−(aq)
From the text: FIGS. 2A through 2C illustrate acid-base titration of an aqueous solution of NS—NH2 photoacid with absorption and photoluminescence detection in accordance with an embodiment.
where aOH− is the activity of OH^−(aq), K*b pseudo is an erroneous observed equilibrium constant for base dissociation and KSV,OH− is the Stern-Volmer quenching constant, which is strictly dimensionless but reported here in units of M^−1 to be consistent with its typical usage. Unlike the Henderson-Hasselbalch equation, the Stern-Volmer equation is also applicable to non-equilibrium processes.
and KSV,OH−=k+q,OH−τo,PAH*, where τ is the excited-state lifetime (s) of NS—NH2* in the absence (τo,PAH*) or presence (τPAH*) of OH^− quencher and k+q,OH− is the bimolecular rate constant (M^−1 s^−1) for quenching of NS—NH2* by OH^− (forward direction of Reaction 1 with B=OH^−(aq)).
Several embodiments use the steady-state ultraviolet-visible electronic absorption and photoluminescence spectroscopy for characterization. Equal amounts of aromatic amine photoacids are portioned into five separate 100 mL volumetric flasks. For the non-proton-accepting quencher experiments, the five flasks are filled to the volumetric marker with aqueous solutions of 1 M HCl, 1 M KOH, 2 M KOH, 3 M KOH, and 4 M KOH. The aqueous 1 M KOH solution is titrated with the aqueous 1 M HCl solution to reach the desired pH values from 14 to 6, and the H^+ activities are measured using a pH meter (pH/Ion 510). […] Electronic absorption spectra and photoluminescence spectra are acquired using absorbance and fluorescence spectrometer(s), using a square-bottom quartz cuvette (1 cm path length) at room temperature. Electronic absorption spectra are baselined on a spectrum of deionized water and were corrected for scattering of light. Photoluminescence spectra are recorded by exciting with 310 nm light, slit widths for the excitation and emission monochromators were set to 5 nm, and the PMT detector voltage is set to 600 V. Photoluminescence spectra are corrected for changes in solution refractive index, inner filter effects and the wavelength-dependent correction factor of the fluorimeter. For experiments that use non-OH^− proton-accepting quenchers, equal amounts of the quencher are added to the dry volumetric flask intended to form the acidic and basic aqueous photoacid solutions, to prevent changes in total quencher concentration during the titration, and titrations are performed similarly to those in the absence of added proton-accepting quenchers. Although the total quencher concentration is kept constant throughout the titration, the activity of the deprotonated quencher species varied as a function of solution pH according to Equation 3. Ionic strength is matched at the most alkaline pH values; however, it is experimentally difficult to maintain the same ionic strength throughout the titration. Normalized photoluminescence intensities as a function of solution pH are obtained by dividing the corrected photoluminescence intensities at the wavelength of maximum photoluminescence to the maximum corrected photoluminescence intensity at the same wavelength.

[4] = Stability of dye fluorescence near an operating gas diffusion electrode

ΔpKa pseudo [1]	Molecule	pKa* pseudo [2]	pKa [2]	also measured
< −1.7	Nc1cccc2c1C(=O)c1cccc(N)c1C2=O [1,5-diaminoanthraquinone]	12.3	>14	–
< 3.2	Nc1cc2ccccc2cc1C(=O)O [2-amino-3-naphthoic acid]	12.8	>16	–
–	2-aminonaphthalene-6-sulfonate	11.86	–	–
−4.6	O=C(O)c1ccc2[nH]ccc2c1 [indole-5-carboxylic acid]	12.3	16.9	–
–	Nc1ccc(C(=O)O)cn1 [6-aminonicotinic acid]	14.2	–	–
< −4.8	Nc1ccc(Nc2ccccc2)cc1 [4-aminodiphenylamine]	11.2	>16.0	–
–	Nc1ccc(Oc2ccc(N)cc2)cc1 [bis(4-aminophenyl)ether]	11.2	–	–
–	CNc1ccccc1-c1nc2ccccc2n1C [2-(2′-N-methyl-aminophenyl)-N-methylbenzimidazole]	12.2	–	–
−0.3	c1ccc(-c2cc(-c3ccccc3)[nH]n2)cc1 [3,5-diphenylpyrazole]	12.64	12.94	–
−4.2	O=C(O)c1cccc2[nH]ccc12 [indole-4-carboxylic acid]	12.2	16.4	–
–	O=S(=O)([O-])c1cccc2cccc(Nc3ccccc3)c12.[Na+] [sodium 8-anilinonaphthalene-1-sulfonate, 8-anilinonaphthalene-1-sulfonic acid sodium salt]	–	–	predicted pK*a pseudo (Equation 5) [3]: 13.92±0.04; bimolecular rate constant k+q,ss,OH− [3]: (48±4)×10^8 M^−1 s^−1; KSV,ss,OH− (linearized Stern-Volmer) ([3]; steady-state photoluminescence, traditional linearized Stern-Volmer fit, OH−(aq) quencher): 1.2 ± 0.1 M⁻¹
–	Nc1cnc2ccccc2c1 [3-aminoquinoline]	12.1	–	–
–	COC(=O)c1ccc(N)nc1 [methyl-6-aminonicotinate]	11.1	–	–
< −0.7	Nc1ccc(Nc2ccc(N)cc2)cc1 [4,4′-diaminodiphenylamine]	13.5	>14.2	–
−2.3	COc1n[nH]c2ccccc12 [3-methoxyindazole]	11.7	14.0	–
−2.5	O=C(O)c1c[nH]c2ccccc12 [indole-3-carboxylic acid]	13.1	15.6	–
< −3.1	Nc1cc2ccccc2cc1N [2,3-diaminonaphthalene]	12.9	>16	–
–	NCCNc1cccc2c(S(=O)(=O)[O-])cccc12.[Na+] [EDANS, 5-((2-aminoethyl)amino)naphthalene-1-sulfonic acid sodium salt]	–	–	pKa ([3]; aqueous solution, pKa of the aliphatic primary amine, multi-quencher Stern-Volmer fit): 10.06 ± 0.02; unimolecular rate constant ([3]; excited-state deprotonation by the aliphatic primary amine): (0.95±0.01)×10^8 s^−1; KSV,NH2 ([3]; excited-state deprotonation by the aliphatic primary amine (intramolecular)): 1.20 ± 0.02 M⁻¹; predicted pK*a pseudo (Equation 5) [3]: 12.53±0.06; bimolecular rate constant k+q,ss,OH− [3]: (23±1)×10^8 M^−1 s^−1; KSV,ss,OH− ([3]; steady-state photoluminescence, non-linear Stern-Volmer fit, OH−(aq) quencher): 30 ± 1 M⁻¹
–	Nc1cc(S(=O)(=O)[O-])c2ccc3c(S(=O)(=O)[O-])cc(S(=O)(=O)[O-])c4ccc1c2c43.[Na+].[Na+].[Na+] [APTS, 8-aminopyrene-1,3,6-trisulfonic acid trisodium salt]	–	–	colour of stock solution after exposure ([4]; 10 mM stock solution exposed to −100 mA/cm^2 for 30 minutes): from bright green to brown; photoluminescence intensity during GDE operation ([4]; high current densities (magnitudes >80 mA/cm^2), trisodium salt): degrades and slowly loses its fluorescence; also recorded: decrease in photoluminescence intensity; steady-state photoluminescence spectrum versus dissolved inorganic carbon ([4]; increasing concentration of dissolved inorganic carbon): minimal change in intensity; calibration curve after degradation versus fresh solutions ([4]; stock solution exposed to −100 mA/cm^2 for 5 minutes): nearly identical; degradation, pH 7.1 versus pH 3 solution ([4]; with and without light): degradation effect is more pronounced for the pH 3 solution; pKa [3]: > 14; bimolecular rate constant k+q,ss,OH− [3]: (2.992±0.004)×10^9 M^−1 s^−1; pK*a pseudo (Henderson-Hasselbalch fit) ([3]; steady-state photoluminescence titration, global fit of two trials): 12.83±0.01
–	COc1cccc(N)c1 [m-anisidine]	13.7	>16	–
−2.1	Nc1ccc2[nH]ccc2c1 [5-aminoindole]	14	16.1	–
−4.2	O=C(O)c1cc2ccccc2[nH]1 [indole-2-carboxylic acid]	12.9	17.1	–
–	Nc1ccc2c(c1)Cc1ccccc1-2 [2-aminofluorene]	13.0	–	–
< −1.4	Nc1ccc2c(c1)C(=O)c1ccc(N)cc1C2=O [2,6-diaminoanthraquinone]	14.2	>15.6	–

Molecule	ΔpKa pseudo [1]	pKa* pseudo [2]	pKa [2]	also measured
c1ccc2c(c1)[nH]c1ccccc12 [carbazole]	−9.2	11.9	–	–
Nc1ccc2c(c1)Cc1cc(N)ccc1-2 [2,7-diaminofluorene]	< −2.1	13.9	>16	–
COc1ccc(N)cc1 [p-anisidine]	< −2.7	13.3	>16	–
Nc1ccc2ccccc2c1 [2-naphthylamine]	−3.2	11.75	14.95	–
Nc1cc2ccccc2c2ccccc12 [9-phenanthrylamine]	< −1.82	12.18	>14	–
Nc1ccc(-c2ccccc2)cc1 [4-aminobiphenyl]	< −1.25	14.25	>15.5	–
Nc1cc2c3ccccc3ccc2c2ccccc12 [6-aminochrysene]	< −1.4	12.6	>14	–
Nc1cccc(-c2ccccc2)c1 [3-aminobiphenyl]	< −3.0	12.0	>15.0	–
Nc1ccccc1-c1ccccc1 [2-aminobiphenyl]	< −2.9	12.1	>15.0	–
